Consider 5 compounds from ChEMBL document CHEMBL1128206, “Substituted 2-azaspiro[5.3]nonan-1-ones as potent cholesterol absorption inhibitors: defining a binding conformation for SCH 48461” (1995).

For assay [1], the system named is Cricetinae gen. sp. Nature of the assay: Effective concentration was evaluated when liver cholesterol ester level reduction was 17%. Format: functional, Cricetulus griseus.
For assay [2], the system named is Cricetinae gen. sp. Briefly: Effective concentration was evaluated when liver cholesterol ester level reduction was 87%. Format: functional, Cricetulus griseus.
The nature of assay [3]: Compound was evaluated in vivo for the reduction of liver cholesterol ester level at the rate 5 mpk. Format: functional.
The nature of assay [4]: Compound was evaluated in vivo for the reduction of liver cholesterol ester level at the rate 10 mpk. Format: functional.
Assay [5] is described as follows: Compound was evaluated in vivo for the reduction of liver cholesterol ester level at the rate 50 mpk. Format: functional.

Each structure is given as a SMILES string. Some results are limits rather than exact numbers.

Broadly, the ED50 is the midpoint of the dose-response relation. Low values mean an effect at a small dose, high ones a need for a large dose.

In the case of `COc1ccc([C@@H]2N(c3ccc(OC)cc3)C(=O)C23CCC(c2ccccc2)CC3)cc1` (stereo partly drawn), the ED50 is 3 mg/kg in assay [1] and above 50 mg/kg in assay [2].

For `COc1ccc([C@H]2[C@H](CCCc3ccccc3)C(=O)N2c2ccc(OC)cc2)cc1`, the L/CE in assay [3] worked out at 0%.

For the compound `COc1ccc([C@@H]2[C@H](CCCc3ccccc3)C(=O)N2c2ccc(OC)cc2)cc1`, the figures for the L/CE in assay [4] and in assay [5] were 69% and 0%, respectively.

For the compound `COc1ccc([C@H]2[C@@H](CCCc3ccccc3)C(=O)N2c2ccc(OC)cc2)cc1`, the L/CE in assay [4] was 0%.

With `COc1ccc([C@@H]2[C@@H](CCCc3ccccc3)C(=O)N2c2ccc(OC)cc2)cc1` [SCH-48461], the L/CE in assay [3] was determined as 66%; in assay [5], 0%.
